This is an account of results in patent US12448389B2, “BRM targeting compounds and associated methods of use” (Prelude Therapeutics Incorporated, priority 2020, dated 2025).

One experiment deals with T1, SMARCA2 (Homo sapiens, UniProt P51531).
T1 construct: endogenous in cells; host or cells: NCI-H520 (given as NCIH520 / NCIH1520 / H520)
In words: SMARCA2 protein degradation in NCIH520 cells by In Cell Western (ICW). In kind it is cell-based. To be noted: highest concentration 1 μM; for DC50: H520 cells, overnight incubation (maximum 18 hours), read-out: DC50 (SM2_H520): SMARCA2 degradation potency; for Dmax: NCI-H520, overnight incubation (maximum 18 hours), read-out: Dmax % (SM2_H520): maximum SMARCA2 degradation within the concentrations tested. The protocol:
(§1) Compounds were dissolved in DMSO to make 10 mM stock and 3-fold series dilutions were further conducted keeping the highest concentration 10 μM. NCIH11693 and NCIH1520 cells were maintained in PRMI 1640 medium (Corning Cellgro, Catalog #: 10-040-CV) supplemented with 10% v/v FBS (GE Healthcare, Catalog #: SH30910.03) by splitting 1:3 twice a week.
(§2) SMACRA2 and SMARCA4 Protein Degradation DC50 Values in NCIH1693 and NCIH520 Cells by in Cell Western (ICW) Analysis.
(§3) Cells were trypsinized and 30 thousand cells/well were seeded into 384-well plates and were allowed to grow for 1-2 hours at 37° C. Eight-point, 3-fold serial dilutions of compounds from 0.5 mM stocks were added to the cells (using digital Dispenser D300-Tecan, keeping highest concentration 1 μM and normalizing with DMSO at the highest dispensed volume). Plates were incubated at 37° C. for overnight (maximum 18 hours). Cells incubated with DMSO was used as a vehicle control.
(§4) To perform In Cell Western, medium was removed from all the wells leaving cells attached to the surface. After removing the medium, cells were fixed within the plates with 40 μL of 4% formaldehyde by incubating at room temperature for 30 minutes, and then permeabilized with wash buffer (1×PBS with 0.1% Triton X-100) by washing the plate 5 times with 50 μL/well. Before labeling with primary antibodies, cells were blocked with 30 μL/well of blocking buffer (Licor Odyssey blocking buffer PBS #927-40000) for 30 minutes at room temperature. To measure SMARCA2 or SMARCA4 proteins, cells were labeled with 20 μL/well of anti SMARCA2 or SMACRA4 antibodies (Cell Signaling BRM #11966S 1:800, Cell Signaling BRG #49360S 1:800) diluted in Li-Cor Odyssey blocking buffer-PBS #927-40000, followed by overnight incubation at 4° C.
(§5) The next day, plates were washed 5×5 minutes with 50 μL/well of washing buffer to remove all the excess primary antibody and then 20 μL from a mixture of secondary antibody and fluorescent DNA specific dye (Goat anti rabbit 1:500 IRDye-800CW #92632211, and DRAQ5™ 1:2000-#ab108410) was added to each well. Plates were incubated for 1 hour at room temperature with gentle rocking. Cells were washed 5 times with 50 μL/well wash buffer, followed by one last wash with DI water, followed by 10 mins drying at 37° C. oven before scanning. Plates were scanned using Li-Cor Odyssey CLx imaging system to acquire integrated intensities at 700 nm and 800 nm. SMARCA signals were normalized to total cell count and then these normalized values were used to calculate the percent degradation relative to DMSO control and maximum inhibition. DC50s were calculated by using the GraphPad Prism4 program based on sigmoidal dose response equation ([Inhibitor] vs. normalized response-Variable slope).
(§6) In Table 36, the DC50/Dmax% (SM2_H520) refers to SMARCA2 degradation potency/maximum SMARCA2 degradation within the concentrations in H520 cells and DC50/Dmax% (SM4_H520) refers to SMARCA4 degradation potency/maximum SMARCA4 degradation within the concentrations tested in H520 cells.

Another experiment concerns the target T2, SMARCA4 (Homo sapiens, UniProt P51532).
T2 construct: endogenous in cells; host or cells: NCI-H520 (given as NCIH520 / NCIH1520 / H520)
Briefly: SMARCA4 protein degradation in NCIH520 cells by In Cell Western (ICW). In kind it is cell-based. To be noted: highest concentration 1 μM; for DC50: H520 cells, overnight incubation (maximum 18 hours), read-out: DC50 (SM4_H520): SMARCA4 degradation potency; for Dmax: NCI-H520, overnight incubation (maximum 18 hours), read-out: Dmax % (SM4_H520): maximum SMARCA4 degradation within the concentrations tested. The protocol:
as §1, §2, §3, §4, §5, §6

Experiment [1] deals with SMARCA4 mutated cancer cells. To be noted: SMARCA2/4 bromodomain inhibitor; Vangamudi et al. Cancer Res 2015; cited from earlier work.

Bounds are passed on as bounds.

T1 sequence (P51531 whole entry): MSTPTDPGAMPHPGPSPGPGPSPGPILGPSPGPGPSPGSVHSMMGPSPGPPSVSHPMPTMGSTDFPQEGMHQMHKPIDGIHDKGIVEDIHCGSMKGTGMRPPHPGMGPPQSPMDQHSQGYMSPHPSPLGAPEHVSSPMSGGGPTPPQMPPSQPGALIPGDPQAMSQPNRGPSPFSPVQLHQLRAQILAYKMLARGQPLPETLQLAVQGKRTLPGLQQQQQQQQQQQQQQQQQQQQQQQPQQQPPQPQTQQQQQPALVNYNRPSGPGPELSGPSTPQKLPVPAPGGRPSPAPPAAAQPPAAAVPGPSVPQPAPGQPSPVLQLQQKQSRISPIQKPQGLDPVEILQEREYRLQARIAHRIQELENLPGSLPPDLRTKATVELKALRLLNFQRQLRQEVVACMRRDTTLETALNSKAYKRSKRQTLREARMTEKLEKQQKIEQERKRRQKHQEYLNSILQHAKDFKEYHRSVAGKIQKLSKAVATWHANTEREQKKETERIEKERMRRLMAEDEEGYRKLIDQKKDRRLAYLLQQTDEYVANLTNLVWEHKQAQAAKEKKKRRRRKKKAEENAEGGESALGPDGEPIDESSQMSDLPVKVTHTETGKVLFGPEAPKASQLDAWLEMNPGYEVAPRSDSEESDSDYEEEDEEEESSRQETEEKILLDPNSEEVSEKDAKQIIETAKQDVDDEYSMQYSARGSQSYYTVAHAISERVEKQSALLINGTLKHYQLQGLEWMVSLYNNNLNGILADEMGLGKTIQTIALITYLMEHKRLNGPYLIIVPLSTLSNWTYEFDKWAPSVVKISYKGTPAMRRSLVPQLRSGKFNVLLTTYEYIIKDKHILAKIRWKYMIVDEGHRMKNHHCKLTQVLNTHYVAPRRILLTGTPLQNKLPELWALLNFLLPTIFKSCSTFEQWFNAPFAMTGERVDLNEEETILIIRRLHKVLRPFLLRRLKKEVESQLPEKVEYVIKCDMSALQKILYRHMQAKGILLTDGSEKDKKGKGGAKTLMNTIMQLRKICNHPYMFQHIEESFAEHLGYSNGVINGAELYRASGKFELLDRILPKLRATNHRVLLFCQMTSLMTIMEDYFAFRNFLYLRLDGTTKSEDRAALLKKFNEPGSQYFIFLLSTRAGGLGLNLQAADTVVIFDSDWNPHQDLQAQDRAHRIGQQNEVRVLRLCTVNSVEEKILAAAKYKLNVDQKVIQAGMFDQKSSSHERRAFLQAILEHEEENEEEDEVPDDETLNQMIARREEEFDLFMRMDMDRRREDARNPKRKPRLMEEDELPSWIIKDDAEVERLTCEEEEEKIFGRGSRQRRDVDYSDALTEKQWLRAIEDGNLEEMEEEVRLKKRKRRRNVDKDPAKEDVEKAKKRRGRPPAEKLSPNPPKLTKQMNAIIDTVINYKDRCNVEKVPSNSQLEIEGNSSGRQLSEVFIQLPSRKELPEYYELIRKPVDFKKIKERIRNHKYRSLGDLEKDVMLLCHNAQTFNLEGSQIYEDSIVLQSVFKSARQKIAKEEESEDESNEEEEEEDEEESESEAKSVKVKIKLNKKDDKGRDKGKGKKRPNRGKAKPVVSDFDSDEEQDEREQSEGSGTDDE
T2 sequence (P51532 whole entry): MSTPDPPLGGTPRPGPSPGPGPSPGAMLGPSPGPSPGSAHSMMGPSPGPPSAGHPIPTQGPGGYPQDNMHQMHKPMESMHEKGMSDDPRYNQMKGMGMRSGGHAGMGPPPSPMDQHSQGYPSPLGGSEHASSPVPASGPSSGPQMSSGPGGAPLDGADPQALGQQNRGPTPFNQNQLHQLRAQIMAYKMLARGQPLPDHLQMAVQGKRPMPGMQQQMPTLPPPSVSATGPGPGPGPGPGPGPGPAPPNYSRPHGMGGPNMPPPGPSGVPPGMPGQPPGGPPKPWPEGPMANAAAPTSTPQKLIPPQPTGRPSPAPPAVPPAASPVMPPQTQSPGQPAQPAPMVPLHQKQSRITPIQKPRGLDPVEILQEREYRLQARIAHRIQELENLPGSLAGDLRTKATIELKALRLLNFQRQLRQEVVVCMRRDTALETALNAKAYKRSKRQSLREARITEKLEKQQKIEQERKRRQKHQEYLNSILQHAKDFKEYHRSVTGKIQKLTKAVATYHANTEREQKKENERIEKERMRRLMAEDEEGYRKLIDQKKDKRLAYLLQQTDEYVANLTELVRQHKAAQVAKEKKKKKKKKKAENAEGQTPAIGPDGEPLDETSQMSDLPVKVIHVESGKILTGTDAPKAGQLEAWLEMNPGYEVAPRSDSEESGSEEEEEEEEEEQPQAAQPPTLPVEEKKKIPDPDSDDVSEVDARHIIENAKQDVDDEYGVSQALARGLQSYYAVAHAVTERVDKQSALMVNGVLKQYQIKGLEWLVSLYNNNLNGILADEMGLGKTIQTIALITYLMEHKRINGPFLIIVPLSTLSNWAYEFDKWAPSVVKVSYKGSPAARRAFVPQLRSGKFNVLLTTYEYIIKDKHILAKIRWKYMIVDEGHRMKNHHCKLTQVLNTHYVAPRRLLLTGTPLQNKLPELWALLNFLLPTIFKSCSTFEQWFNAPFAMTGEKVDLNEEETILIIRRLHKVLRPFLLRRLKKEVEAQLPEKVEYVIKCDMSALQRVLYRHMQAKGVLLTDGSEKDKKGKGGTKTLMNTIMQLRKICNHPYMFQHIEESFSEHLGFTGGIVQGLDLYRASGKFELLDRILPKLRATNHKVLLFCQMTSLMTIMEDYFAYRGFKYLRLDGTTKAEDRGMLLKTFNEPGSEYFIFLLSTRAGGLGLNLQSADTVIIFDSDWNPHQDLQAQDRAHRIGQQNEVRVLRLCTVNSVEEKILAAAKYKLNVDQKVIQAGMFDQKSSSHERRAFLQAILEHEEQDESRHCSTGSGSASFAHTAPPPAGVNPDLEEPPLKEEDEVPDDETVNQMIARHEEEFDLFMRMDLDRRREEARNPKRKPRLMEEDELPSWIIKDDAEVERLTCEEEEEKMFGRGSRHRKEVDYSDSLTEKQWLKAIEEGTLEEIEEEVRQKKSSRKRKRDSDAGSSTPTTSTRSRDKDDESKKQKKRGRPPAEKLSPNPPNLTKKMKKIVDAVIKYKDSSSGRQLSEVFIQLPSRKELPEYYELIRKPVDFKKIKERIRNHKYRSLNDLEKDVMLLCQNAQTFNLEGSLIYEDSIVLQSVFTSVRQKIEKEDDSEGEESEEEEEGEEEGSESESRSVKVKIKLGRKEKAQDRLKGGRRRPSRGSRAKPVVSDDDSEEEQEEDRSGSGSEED

Turning to `O=C1CCC(N2C(=O)c3ccc(N4CCC(N5CCC(N6CCN7c8cc(-c9ccccc9O)nnc8NC[C@H]7C6)CC5)C4)cc3C2=O)C(=O)N1` (stereo partly drawn) [Example 13, 2-(2,6-Dioxopiperidin-3-yl)-5-(3-(4-((S)-2-(2-hydroxyphenyl)-5,6,6a,7,9,10-hexahydro-8H-pyrazino[1′,2′:4,5]pyrazino[2,3-c]pyridazin-8-yl)piperidin-1-yl)pyrrolidin-1-yl) isoindoline-1,3-dione], at SMARCA2, the half-maximal degradation concentration (DC50) is below 100 nM and the Dmax was above 75%. For the same compound, at SMARCA4, the DC50 is below 100 nM and the Dmax was above 75%.
As for `O=C1CCC(N2C(=O)c3ccc(N4CCC(N5CCC(N6CCN7c8cc(-c9ccccc9O)nnc8NC[C@H]7C6)CC5)CC4)cc3C2=O)C(=O)N1` (stereo partly drawn) [Example 14, 2-(2,6-dioxopiperidin-3-yl)-5-(4-((S)-2-(2-hydroxyphenyl)-5,6,6a,7,9,10-hexahydro-8H-pyrazino[1′,2′:4,5]pyrazino[2,3-c]pyridazin-8-yl)-[1,4′-bipiperidin]-1′-yl) isoindoline-1,3-dione], the 50% degradation concentration (DC50) on SMARCA2 and at SMARCA4 was below 100 nM in each case. Moreover, the Dmax on SMARCA2 and on SMARCA4 was above 75% in each case.
For the compound `O=C1CCC(N2C(=O)c3ccc(N4CCC(OCCN5CCC(N6CCN7c8cc(-c9ccccc9O)nnc8NC[C@H]7C6)CC5)CC4)cc3C2=O)C(=O)N1` (stereo partly drawn) [Example 16, 2-(2,6-Dioxopiperidin-3-yl)-5-(4-(2-(4-((S)-2-(2-hydroxyphenyl)-5,6,6a,7,9,10-hexahydro-8H-pyrazino[1′,2′:4,5]pyrazino[2,3-c]pyridazin-8-yl)piperidin-1-yl)ethoxy)piperidin-1-yl) isoindoline-1,3-dione], at SMARCA2, the DC50 was below 100 nM and the Dmax is above 75%. Moreover, on SMARCA4, the DC50 is below 100 nM and the Dmax was 50 to 75%.
Regarding `O=C1CCC(N2Cc3ccc(N4CCN(CCN5CCC(N6CCN7c8cc(-c9ccccc9O)nnc8NC[C@H]7C6)CC5)CC4)cc3C2=O)C(=O)N1` (stereo partly drawn) [Example 17, 3-(6-(4-(2-(4-((S)-2-(2-hydroxyphenyl)-5,6,6a,7,9,10-hexahydro-8H-pyrazino [1′,2′:4,5]pyrazino[2,3-c]pyridazin-8-yl)piperidin-1-yl)ethyl)piperazin-1-yl)-1-oxoisoindolin-2-yl)piperidine-2,6-dione], on SMARCA2, the DC50 is below 100 nM and the Dmax was above 75%. Further, at SMARCA4, the DC50 was below 100 nM and the Dmax is above 75%.
As for `O=C1CCC(n2c3ccc(CCCN4CCC(c5cnc(N6CCN7c8cc(-c9ccccc9O)nnc8NC[C@@H]7C6)nc5)CC4)cc3c3cccnc32)C(=O)N1` (stereo partly drawn) [Example 18, 3-(6-(3-(4-(2-((R)-2-(2-hydroxyphenyl)-5,6,6a,7,9,10-hexahydro-8H-pyrazino [1′,2′:4,5]pyrazino[2,3-c]pyridazin-8-yl)pyrimidin-5-yl)piperidin-1-yl)propyl)-9H-pyrido [2,3-b]indol-9-yl)piperidine-2,6-dione], at SMARCA2, the DC50 was below 100 nM and the Dmax was above 75%. On SMARCA4, the half-maximal degradation concentration (DC50) is below 100 nM and the Dmax is above 75%.
With `O=C1CCC(n2c3ccc(CCCN4CCC(N5CCN6c7cc(-c8ccccc8O)nnc7NC[C@H]6C5)CC4)cc3c3cccnc32)C(=O)N1` (stereo partly drawn) [Example 19, 3-(6-(3-(4-((S)-2-(2-hydroxyphenyl)-5,6,6a,7,9,10-hexahydro-8H-pyrazino [1′,2′:4,5]pyrazino[2,3-c]pyridazin-8-yl)piperidin-1-yl)propyl)-9H-pyrido[2,3-b]indol-9-yl) piperidine-2,6-dione], on SMARCA2, the DC50 was below 100 nM and the Dmax was above 75%. Moreover, at SMARCA4, the DC50 is below 100 nM and the Dmax is above 75%.
For the compound `O=C1CCC(n2c3ccc(CCCN4CCC(N5CCC(N6CCN7c8cc(-c9ccccc9O)nnc8NC[C@H]7C6)CC5)CC4)cc3c3cccnc32)C(=O)N1` (stereo partly drawn) [Example 20, 3-(6-(3-(4-((S)-2-(2-hydroxyphenyl)-5,6,6a,7,9,10-hexahydro-8H-pyrazino [1′,2′:4,5]pyrazino[2,3-c]pyridazin-8-yl)-[1,4′-bipiperidin]-1′-yl)propyl)-9H-pyrido[2,3-b]indol-9-yl)piperidine-2,6-dione], at SMARCA2, the DC50 is below 100 nM and the Dmax is above 75%. Further, at SMARCA4, the DC50 was below 100 nM and the Dmax was above 75%.
Take `O=C1CCC(n2c3ccc(CCCN4CCC(N5CC(N6CCN7c8cc(-c9ccccc9O)nnc8NC[C@H]7C6)C5)CC4)cc3c3cccnc32)C(=O)N1` (stereo partly drawn) [Example 21, 3-(6-(3-(4-(3-((S)-2-(2-hydroxyphenyl)-5,6,6a,7,9,10-hexahydro-8H-pyrazino [1′,2′:4,5]pyrazino[2,3-c]pyridazin-8-yl)azetidin-1-yl)piperidin-1-yl)propyl)-9H-pyrido[2,3-b]indol-9-yl)piperidine-2,6-dione]: the DC50 at SMARCA2 and on SMARCA4 was below 100 nM throughout. The Dmax at SMARCA2 and at SMARCA4 was above 75% each time.
With `O=C1CCC(n2c3ccc(CCCN4CCN(CCN5CCN6c7cc(-c8ccccc8O)nnc7NC[C@H]6C5)CC4)cc3c3cccnc32)C(=O)N1` (stereo partly drawn) [Example 22, 3-(6-(3-(4-(2-((S)-2-(2-hydroxyphenyl)-5,6,6a,7,9,10-hexahydro-8H-pyrazino [1′,2′:4,5]pyrazino[2,3-c]pyridazin-8-yl)ethyl)piperazin-1-yl)propyl)-9H-pyrido[2,3-b]indol-9-yl)piperidine-2,6-dione], the DC50 on SMARCA2 and on SMARCA4 was below 100 nM in each case. Also, the Dmax at SMARCA2 and on SMARCA4 was above 75% throughout.
In the case of `O=C(/C=C/N1C[C@H]2C[C@@H]1CN2c1ccccn1)c1ccccc1O` [PFI-3], the “effects on cell proliferation inhibition” value in experiment [1] is recorded as “none to minor effects”.

Broadly, the DC50 is the concentration giving 50% degradation.
